According to patent US9650407B2, “Reprogramming of cellular adhesion” (The Regents of the University of California, priority 2011, dated 2017):

Tests used:
[1] = tested on: heterogeneous MCF10ARas/MCF10AWT microtissues; assay: Emergent phenotypes in heterogeneous MCF10ARas/MCF10AWT microtissues in 3D lrECM culture; format: cell-based; details: over 24 hr in culture vs DMSO control; LY294002 20 μM, PD325901 200 nM, Sorafenib 10 μM, PIK-90 2 μM; DNase added immediately after sorting
Protocol: Sorafenib was a gift from Kevan Shokat (UCSF0 and used at 10 μM. PIK-90 was purchased from Calbiochem and used at 2 μM. High activity DNase was purchased from Ambion. Ethidium homodimer-1 was purchased from Invitrogen and used at 1 μM.
The following antibodies were used for western blot: E-cadherin (BD Biosciences), tubulin (Sigma-Aldrich), phospho-Erk and phospho-Akt (Cell Signaling Technology), pan-Ras (Calbiochem), goat anti-mouse-HRP, and goat anti-rabbit-HRP (Thermo Scientific). The following antibodies were used for immunofluorescent staining: GM130, β-catenin (BD Biosciences), α6-integrin, laminin-5 (Millipore), cleaved caspase-3 (Cell Signaling Technology), Ki-67 (Sigma-Aldrich), gp135 (a gift from Keith Mostov, UCSF), Alexa Fluor 488- and 568-conjugated goat anti-mouse, anti-rat, and anti-rabbit antibodies (Invitrogen). F-actin was stained with Alexa Fluor 488- or 568-conjugated phalloidin (Invitrogen). LY294002 and PD325901 (Calbiochem) were used at 20 μM and 200 nM, respectively. TURBO DNase (Invitrogen) was used at a concentration of 10 U/ml.
Time-lapse images of aggregates were acquired on a Zeiss 200M inverted fluorescence microscope equipped with an XCite […] light source and a Hamamatsu camera. Field positions were programmed into Slidebook 5.0 software, and images were acquired at 30 min intervals. Samples were maintained in a humidified chamber at 37° C. and 5% CO2. Phenotypes were scored in Slidebook 5.0 software after acquisition. Microtissues that merged with other microtissues or single cells were not scored due to confounding effects on cell motility.
Apoptotic cells were excluded from phenotype quantification, as judged by cell morphology (FIG. 27, Panels A-E) or uptake of ethidium homodimer-1 (FIG. 28, Panels C, G, and H). Extruding microtis sues contained a single H2B-GFP-expressing cell pushed beyond the phase-bright boundary formed by the surrounding cells. Multicellular protrusions began with a single H2B-GFP-expressing cell that led the translation of the surrounding cells without becoming disconnected from the microtissue. H2B-GFP-expressing cells that broke away from tissues and moved alone were scored as protruding cells due to their altered morphology and motility.

Jurkat cells = assay: Time-lapse imaging of membrane dynamics of DNA-immobilized cells; format: cell-based; details: 1 uM latrunculin A; for membrane tubules from the cell surface: subsequent 100 uM nocodazole; for membrane microspikes: 100 uM nocodazole, 10 ng/mL PMA and 1.3 uM ionomycin
Protocol: Cells incorporating lipid-DNA were allowed to settle onto patterned glass within a PDMS-based flow cell for 30 minutes. Only cells hybridized to the surface via DNA were retained when the surface was washed with PBS. Patterned cells were imaged at 37° C. on a Zeiss Axiovert 200M at 200× or 400× magnification using phase contrast settings.
Cells were incubated with 1 uM latrunculin A either 10 (after nocodazole treatment) or 40 minutes prior to timelapse imaging. Cells were incubated with 10 ng/mL phorbol 12-myristate 13-acetate (PMA) and 1.3 uM ionomycin 4 hours prior to lipid incorporation. Cells were incubated with 100 uM nocodazole, with or without addition of latrunculin, 10 minutes prior to imaging.
Using ImageJ, cells were picked automatically from 20× fields of view and subsequently binarized. For each time point, scanning down the y-axis, the horizontal slice with the greatest width was identified. For each cell, the coefficient of variation was calculated for this set of widths, and this statistic was used to characterize each cell's membrane motility for binning. Error bars signify standard error.

Row | Structure (SMILES) | formation/frequency of motile multicellular protrusions [1] | frequency of basal extrusions [1] | membrane tubules from the cell surface (Jurkat cells) | membrane microspikes (Jurkat cells)
1 | O=C(NOC[C@H](O)CO)c1ccc(F)c(F)c1Nc1ccc(I)cc1F [PD325901] | blocked | blocked |  | 
2 | COc1ccc2c(c1OC)N=C(NC(=O)c1cccnc1)N1CCN=C21 [PIK-90] | reduced | slightly increasing |  | 
3 | CNC(=O)c1cc(Oc2ccc(NC(=O)Nc3ccc(Cl)c(C(F)(F)F)c3)cc2)ccn1 [Sorafenib] | blocked | blocked |  | 
4 | C/C1=C/C(=O)O[C@@H]2C[C@@H](CC[C@H](C)/C=C\C=C\CC1)O[C@@](O)([C@@H]1CSC(=O)N1)C2 [latruncluin A, latrunculin A] |  |  | rapid growth of long tubules | blocked the formation
5 | COC(=O)Nc1nc2ccc(C(=O)c3cccs3)cc2[nH]1 [nocodazole] |  |  | retraction of the membrane tubules | completely blocked
